In general, inhibition refers to the drop in the measured response relative to a control, in per cent.

5 compounds from patent US9770026B2, “Substituted pyrimidine compound and uses thereof” (Shenyang Sinochem Agrochemicals R&D Co., Ltd., priority 2012, dated 2017) can be followed below.

Test [1] relates to cucumber downy mildew. As to the kind of experiment: protectant activity in vivo against cucumber downy mildew. To be noted: Cucumis sativus, 168 h; for pest or weed control at 25 µg/mL: read-out: control effect against cucumber downy mildew (%), 25 mg/L; for pest or weed control at 50 µg/mL: read-out: control effect against cucumber downy mildew (%), 50 mg/L; for pest or weed control at 100 µg/mL: read-out: control effect against cucumber downy mildew (%), 100 mg/L; for pest or weed control at 400 µg/mL: read-out: control effect against cucumber downy mildew (%), 400 mg/L; for pest or weed control at 100 ppm: read-out: protectant activity against cucumber downy mildew in vivo, 100 ppm; for pest or weed control at 400 ppm: read-out: protectant activity against cucumber downy mildew in vivo, 400 ppm.

In test [2] the test system is rice blast. As to the kind of experiment: microbe, parasite or virus in culture. The class given is cell-based. To be noted: Pyricularia oryzae, read-out: inhibition rate against rice blast, 25 ppm, in vitro.
For test [3], the system named is Diamond back moth. Put plainly: insecticidal activity against diamond back moth, airbrush spray. Format: in vivo. The following applies: 72 h; for pest or weed control at 10 µg/mL: 10 mg/L; for pest or weed control at 100 µg/mL: 100 mg/L; for pest or weed control at 600 µg/mL: 600 mg/L. In short, it runs like this:
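Airbrush leaf-disc spray test: both faces of 2 cm cabbage discs received 0.5 ml of test solution at 0.7 kg/cm^2. Solutions were made in acetone:methanol (1:1) and brought to concentration with 0.1% Tween 80 in water. Ten second-instar larvae per disc, triplicates, were held at 25° C and 60˜70% R.H., with mortality recorded at 72 hrs.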

Test [4] relates to wheat powdery mildew. Put plainly: protectant activity in vivo against wheat powdery mildew. The following applies: Triticum aestivum, 168 h; for pest or weed control at 400 µg/mL: read-out: control effect against wheat powdery mildew (%), 400 mg/L, protectant activity; for pest or weed control at 400 ppm: read-out: protectant activity against wheat powdery mildew in vivo, 400 ppm.

Test [5] concerns armyworm. Put plainly: bioactivity test against armyworm, airbrush spray. The class given is in vivo. To be noted: 72 h; for pest or weed control at 600 µg/mL: 600 mg/L.
Test [6] deals with Green peach aphids (Myzus Persicae Sulzer). Put plainly: bioactivity test against green peach aphid, airbrush foliar spray. The class given is in vivo. To be noted: for pest or weed control at 10 µg/mL: 10 mg/L; for pest or weed control at 10 µg/mL / pest or weed control at 100 µg/mL / pest or weed control at 600 µg/mL / pest or weed control at 1.25 µg/mL / pest or weed control at 2.5 µg/mL / pest or weed control at 5 µg/mL: contrastive test, read-out: Insecticidal activity against peach aphid (%); for pest or weed control at 100 µg/mL: 100 mg/L; for pest or weed control at 600 µg/mL: 600 mg/L; for pest or weed control at 1.25 µg/mL: 1.25 mg/L; for pest or weed control at 2.5 µg/mL: 2.5 mg/L; for pest or weed control at 5 µg/mL: 5 mg/L. In short, it runs like this:
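Aphids (15-30 per cabbage leaf disc) on moist filter paper were airbrush-sprayed at 10 psi, 0.5 mL, with compound from acetone:methanol (1:1) diluted in water with 0.1% tween 80. Held at 25±1 C, 60±5% RH; survivors counted after 48 hrs to give death rates.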

For test [7], the system named is corn rust. As to the kind of experiment: protectant activity in vivo against corn rust. The following applies: Zea mays, 168 h; for pest or weed control at 400 µg/mL: read-out: control effect against corn rust (%), 400 mg/L; for pest or weed control at 100 ppm: read-out: protectant activity against corn rust in vivo, 100 ppm.
Test [8] concerns carmine spider mite. Put plainly: bioactivity test against carmine spider mite, airbrush spray. Format: in vivo. To be noted: for pest or weed control at 600 µg/mL: 600 mg/L. In short, it runs like this: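 Broadbean seedlings infested with adult mites were sprayed with compound (acetone/methanol stock diluted in 0.1% Tween 80 water) by airbrush at 0.7 kg/cm^2, 0.5 ml. Three replicates were run. Mortality was scored after 72 hrs.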

Test [9] concerns cucumber gray mold. Put plainly: fungicidal activity in vitro (inhibition rate) against cucumber gray mold. Format: cell-based. To be noted: 25 ppm, in vitro; read-out: inhibition rate against cucumber gray mold.
The mark [10] stands for this setting: read-out: Insecticidal activity against armyworm (%).
Setting [11] is: Tetranychus cinnabarinus, 72 h, contrastive test, read-out: Insecticidal activity against carmine spider mite (% ).
Setting [12] is: mortality after 72 hrs, read-out: control (test results against diamond back moth).
Setting [13] is: Myzus persicae, foliar, 48 h, death rate after 48 hrs.
Where [14] appears, read: Tetranychus cinnabarinus, 72 h, mortality after 72 hrs.

Consider `Cc1ncnc(NC(=O)Cc2ccc(Oc3ncc(C(F)(F)F)cc3Cl)cc2)c1Cl` [CK60, reference compound], for which, in test [1] (protectant activity), the pest or weed control at 25 µg/mL turned out to be 0%. Besides, the pest or weed control at 50 µg/mL in test [1] (protectant activity) worked out at 0%. The pest or weed control at 100 µg/mL was 10% in [1] (protectant activity); 25% in [3]; 0% in test [6] (Myzus persicae, foliar, 48 h). In addition, the figures for the pest or weed control at 400 µg/mL in test [1] (protectant activity), in test [4] and in test [7] (protectant activity) were 100%, 0% and 0%, respectively. Besides, the inhibition at 25 ppm in [2] and in [9] was 0% throughout. Further, the pest or weed control at 10 µg/mL turned out to be 15% in [3] and 0% in [6] (Myzus persicae, foliar, 48 h). The pest or weed control at 600 µg/mL in test [3] came out at 86%; in [5] (setting [10]) it was 0%; in test [6] (Myzus persicae, foliar, 48 h) it was 81%; in test [8] (setting [11]), 0%.
In the case of `Cc1ncnc(NC(=O)Cc2ccc(Oc3ccc(C(F)(F)F)cc3)cc2)c1Cl` [CK61, reference compound], the pest or weed control at 25 µg/mL in [1] (protectant activity) was 30%. Moreover, the pest or weed control at 50 µg/mL in test [1] (protectant activity) is 85%. The pest or weed control at 100 µg/mL in test [1] (protectant activity) is 90%; in test [6] (Myzus persicae, foliar, 48 h) it was 0%. In addition, the figures for the pest or weed control at 400 µg/mL in test [1] (protectant activity), in test [4] and in [7] (protectant activity) were 100%, 70% and 0%, respectively. Further, the inhibition at 25 ppm in test [2] and in test [9] was 0% each time. Moreover, the pest or weed control at 600 µg/mL in test [3] stood at 0%; in [5] (setting [10]), 0%; in test [6] (Myzus persicae, foliar, 48 h), 88%; in test [8] (setting [11]) it was 0%. The pest or weed control at 10 µg/mL in test [6] (Myzus persicae, foliar, 48 h) turned out to be 0%.
In the case of `CC(Cl)c1ncnc(NCCc2ccc(Oc3nc(Cl)c(Cl)cc3Cl)cc2)c1Cl` (stereo not shown) [CK63, reference compound], the values for the pest or weed control at 400 µg/mL in test [1] (protectant activity), in test [4] and in test [7] (protectant activity) were 70%, 50% and 100%, respectively. Besides, the inhibition at 25 ppm in test [2] and in test [9] was 0% in each case. Further, the pest or weed control at 600 µg/mL in test [3] was 57%; in [5] (setting [10]), 71%; in [6] (Myzus persicae, foliar, 48 h), 100%; in [8] (setting [11]) it was 0%. Besides, in test [6] (Myzus persicae, foliar, 48 h), the pest or weed control at 10 µg/mL was found to be 0%. Besides, the pest or weed control at 100 µg/mL in [6] (Myzus persicae, foliar, 48 h) worked out at 0%; in [7] (read-out: control effect against corn rust (%), 100 mg/L, protectant activity), 30%. Also, in test [7] (read-out: control effect against corn rust (%), 6.25 mg/L, protectant activity), the pest or weed control at 6.25 µg/mL turned out to be 0%. Moreover, in test [7] (read-out: control effect against corn rust (%), 25 mg/L, protectant activity), the pest or weed control at 25 µg/mL was found to be 0%.
As to `CCc1ncnc(NCCc2ccc(Oc3ccc(Cl)nn3)cc2)c1Cl` [Compound I-3309], the pest or weed control at 3.125 µg/mL in test [1] (read-out: control effect against cucumber downy mildew (%), 3.125 mg/L, protectant activity) was found to be 50%. In addition, in test [1] (read-out: control effect against cucumber downy mildew (%), 6.25 mg/L, protectant activity), the pest or weed control at 6.25 µg/mL is 60%. In addition, the pest or weed control at 12.5 µg/mL in test [1] (read-out: control effect against cucumber downy mildew (%), 12.5 mg/L, protectant activity) was determined as 70%. Besides, the pest or weed control at 25 µg/mL in [1] (protectant activity) is 90%. For the same compound, in test [1] (protectant activity), the pest or weed control at 50 µg/mL came out at 90%. Moreover, the pest or weed control at 100 µg/mL in [1] (protectant activity) was 90%; in test [3], 100%; in test [5] (100 mg/L, read-out: Insecticidal activity against armyworm (%)) it was 100%; in test [6] (Myzus persicae, foliar, 48 h), 100%. In addition, the pest or weed control at 400 µg/mL in test [1] (protectant activity) was 100%. The pest or weed control at 25 ppm in test [1] (read-out: protectant activity against cucumber downy mildew in vivo, 25 ppm) was 80 to 99%. Further, the pest or weed control at 50 ppm in [1] (read-out: protectant activity against cucumber downy mildew in vivo, 50 ppm) was 80 to 99%. The pest or weed control at 100 ppm in test [1] was 80 to 99%; in test [3] (100 ppm, mortality after 72 hrs, read-out: control (test results against diamond back moth)), 100%; in test [5] (100 ppm, mortality after 72 h), 100%; in [6] (setting [13]), 100%; in test [7], 80 to 99%; in test [8] (setting [14]) it was 80 to 99%. The pest or weed control at 400 ppm in [1] and in test [4] was 100% each time. Besides, the inhibition at 25 ppm in [2] and in [9] was 80 to 99% in each case. The pest or weed control at 10 µg/mL was 60% in test [3]; 60% in test [5] (10 mg/L, read-out: Insecticidal activity against armyworm (%)); 100% in test [6] (Myzus persicae, foliar, 48 h). Moreover, the pest or weed control at 600 µg/mL in [3] was determined as 100%; in test [5] (setting [10]) it was 100%; in [6] (Myzus persicae, foliar, 48 h), 100%. In addition, the pest or weed control at 600 ppm is 100% in [3] (setting [12]), 100% in test [5] (mortality after 72 h), 100% in [6] (setting [13]) and 80 to 99% in test [8] (setting [14]). Further, in test [6] (Myzus persicae, foliar, 48 h), the pest or weed control at 1.25 µg/mL is 48%. The pest or weed control at 2.5 µg/mL in [6] (Myzus persicae, foliar, 48 h) is 96%. The pest or weed control at 5 µg/mL in test [6] (Myzus persicae, foliar, 48 h) amounted to 100%. The compound further registered a pest or weed control at 10 ppm in test [6] (setting [13]) of 100%.
For the compound `CCc1ncnc(NCCc2ccc(Oc3ccc(C(F)(F)F)cc3)cc2)c1Cl` [II-347], the pest or weed control at 100 ppm in test [1] was 80 to 99%; in [4] (read-out: protectant activity against wheat powdery mildew in vivo, 100 ppm), 100%; in [6] (setting [13]), 100%; in [7] it was 100%; in test [8] (setting [14]), 100%. For the same compound, the pest or weed control at 400 ppm in [1] amounted to 100%; in [4], 100%; in test [7] (read-out: protectant activity against corn rust in vivo, 400 ppm), 100%. Besides, the inhibition at 25 ppm in test [2] and in test [9] was 80 to 99% in each case. In addition, the pest or weed control at 10 µg/mL is 65% in test [3]; 100% in [6] (Myzus persicae, foliar, 48 h); 100% in test [8] (Tetranychus cinnabarinus, 72 h, 10 mg/L, contrastive test, read-out: Insecticidal activity against carmine spider mite (% )). Besides, the pest or weed control at 100 µg/mL amounted to 70% in test [3]; 100% in test [6] (Myzus persicae, foliar, 48 h); 100% in test [8] (Tetranychus cinnabarinus, 72 h, 100 mg/L, contrastive test, read-out: Insecticidal activity against carmine spider mite (% )). The pest or weed control at 600 µg/mL in [3] is 100%; in [6] (Myzus persicae, foliar, 48 h) it was 100%; in [8] (setting [11]), 100%. In addition, the pest or weed control at 600 ppm in test [3] (setting [12]), in [5] (mortality after 72 h), in test [6] (setting [13]) and in test [8] (setting [14]) was 100% throughout. For the same compound, the pest or weed control at 25 ppm in test [4] (read-out: protectant activity against wheat powdery mildew in vivo, 25 ppm) is 100%; in test [7] (read-out: protectant activity against corn rust in vivo, 25 ppm) it was 80 to 99%. In test [6] (2.5 ppm, death rate after 48 hrs), the “control (test results against green peach aphid)” value was 100%. Further, the pest or weed control at 1.25 µg/mL in test [6] (Myzus persicae, foliar, 48 h) stood at 81%. Further, the pest or weed control at 2.5 µg/mL in [6] (Myzus persicae, foliar, 48 h) was determined as 100%. Moreover, the pest or weed control at 5 µg/mL in test [6] (Myzus persicae, foliar, 48 h) came to 100%. This compound also had a pest or weed control at 5 ppm in [6] (Myzus persicae, foliar, 48 h, 5 ppm, death rate after 48 hrs) of 100%. The pest or weed control at 10 ppm was 100% in test [6] (setting [13]) and 100% in test [8] (Tetranychus cinnabarinus, 72 h, 10 ppm, mortality after 72 hrs). Besides, the pest or weed control at 6.25 ppm in test [7] (read-out: protectant activity against corn rust in vivo, 6.25 ppm) was 80 to 99%. Also, the entries for the “Insecticidal activity against carmine spider mite (% )” value in test [8] (2.5 mg/L) and in test [8] (5 mg/L) were 75% and 90%, respectively.
